Our source for the IC50 values is patent publication US10017506B2, “ATX modulating agents” (BIOGEN MA INC., priority 2012, dated 2018).

The structures appear in SMILES notation.

For the first assay, the target named is T1, Human ATX protein (Homo sapiens, UniProt Q13822).
T1 construct: made in house
Nature of the assay: ATX biochemical FRET assay with FS-3 substrate. Conditions: FRET substrate FS-3 2 μM, ATX 1.0 μg/mL, 30 minutes pre-incubation, 2 hours at room temperature; read-out: IC50. An excerpt: ATX (Autotaxin) is a 125 KDa glycoprotein with lysophospholipase D (LPLD) activity that generates the bioactive lipid lysophosphatidic acid (LPA) from lysophosphatidylcholine (LPC). The ATX biochemical assay utilizes a FRET (fluorescence resonance energy transfer) technology platform. The fluorescence signal of FRET substrate FS-3 is quenched due to intra-molecular FRET of a fluorophore to a non-fluorescing quencher (Ferguson, C. G., et al., Org Lett. 2006 May 11; 8(10): 2023-2026, which is incorporated by reference in its entirety). ATX catalyzes the hydrolysis of the substrate which separates the dabsyl quencher from the fluorescein reporter, which becomes fluorescent. The reaction is monitored by a SpectraMax M5 (Molecular Devices, Sunnyvale, Calif.) with at excitation wavelength 485 nm and emission wavelength […].
Fatty acid free-BSA (Sigma A8806): 10 mg/mL in H2O, stored at 4° C.
2×ATX assay buffer: 100 mM Tris, 280 mM NaCl, 10 mM KCl, 2 mM CaCl2, 2 mM MgCl2, pH 7.4.
Human ATX protein: expressed and purified in house. Stored at −80° C.
Substrate FS-3 (Echelon, L-2000): 100 μg in 77.74 μL H2O (1 mM stock), stored at −20° C.
384-well flat bottom plates—Corning #3575.
Compound dilution—All compounds were provided at 10 mM in 100% DMSO. In the first well, 2 μL of 10 mM compound was added to 78 μL of DMSO (1:40 dilution). In subsequent wells 3-fold dilution (total 10 dilutions) were performed.
1×ATX assay buffer was made up with a final concentration of 1 mg/mL fatty acid free-BSA using 2×ATX assay buffer, 10 mg/ml fatty acid free-BSA and ddH2O.
ATX protein was diluted with 1×ATX assay buffer to a concentration of 1.32 μg/mL (1.32×). 38 μL was added per well to the assay plate. The final concentration of ATX in the reaction as 1.0 μg/mL.
2 μL per well of compounds was transferred to provide the desired concentration. The plate was centrifuged, then incubated at room temperature for 30 minutes on the shaker.
Then, 10 μL was added per well to the assay plate. […] The plate was centrifuged. The plate was kept shaking at room temperature for 2 hours. Because FS-3 substrate is light sensitive, plates were kept covered and protected from light.
Fluorescence was measured using SpectraMax M5 (excitation at 485 nm/emission at 538 nm, top read).
In the case of `CCC(c1ccc2ccc(O[C@H]3CC[C@@H](CC)CC3)c(C(F)(F)F)c2c1)N1CCC(C(=O)O)CC1` (stereo partly drawn) [Example 60, 1-(1-(7-((cis-4-ethylcyclohexyl)oxy)-8-(trifluoromethyl)naphthalen-2-yl)propyl)piperidine-4-carboxylic acid], the IC50 is not above 250 nM.

As to `CCC(c1ccc2ccc(O[C@H]3CC[C@@H](CC)CC3)c(C(F)(F)F)c2c1)N1CCC[C@H](CC(=O)O)C1` (stereo partly drawn) [Example 61, 2-((3R)-1-(1-(7-((cis-4-ethylcyclohexyl)oxy)-8-(trifluoromethyl)naphthalen-2-yl)propyl)piperidin-3-yl)acetic acid], the IC50 was not above 250 nM.

With `CC[C@H]1CC[C@@H](Oc2ccc3ccc(C(C)N[C@H]4C[C@@H](C(=O)O)C4(C)C)cc3c2Cl)CC1` (stereo partly drawn) [Example 67, (1R,3S)-3-((1-(8-chloro-7-((cis-4-ethylcyclohexyl)oxy)naphthalen-2-yl)ethyl)amino)-2,2-dimethylcyclobutanecarboxylic acid], the IC50 is not above 250 nM.

In the case of `CC[C@H]1CC[C@@H](Oc2ccc3ccc(C(C)N4CCC(C(=O)O)CC4)cc3c2C#N)CC1` (stereo partly drawn) [Example 72, 1-(1-(8-cyano-7-((cis-4-ethylcyclohexyl)oxy)naphthalen-2-yl)ethyl)piperidine-4-carboxylic acid], the IC50 is not above 500 nM.

On to `CC1(C)C(NCc2ccc3ccc(O[C@H]4CC[C@@H](C)CC4)c(C(F)(F)F)c3c2)CC1C(=O)O` (stereo partly drawn) [Example 78, 2,2-dimethyl-3-(((7-((cis-4-methylcyclohexyl)oxy)-8-(trifluoromethyl)naphthalen-2-yl)methyl)amino)cyclobutanecarboxylic acid], for which the IC50 is not above 250 nM.

For `CC(c1ccc2ccc(O[C@H]3CC[C@@H](C)CC3)c(C(F)(F)F)c2c1)N1CCC(C(=O)O)CC1` (stereo partly drawn) [Example 80, 1-(1-(7-((cis-4-methylcyclohexyl)oxy)-8-(trifluoromethyl)naphthalen-2-yl)ethyl)piperidine-4-carboxylic acid], the IC50 is not above 250 nM.

For the compound `CC(c1ccc2ccc(O[C@H]3CC[C@@H](C)CC3)c(C(F)(F)F)c2c1)N1CCC[C@H](CC(=O)O)C1` (stereo partly drawn) [Example 81, 2-((3R)-1-(1-(7-((cis-4-methylcyclohexyl)oxy)-8-(trifluoromethyl)naphthalen-2-yl)ethyl)piperidin-3-yl)acetic acid], the IC50 is not above 250 nM.

As for `CC(NC1CC(C(=O)O)C1(C)C)c1ccc2ccc(O[C@H]3CC[C@@H](C)CC3)c(C(F)(F)F)c2c1` (stereo partly drawn) [Example 82, 2,2-dimethyl-3-((1-(7-((cis-4-methylcyclohexyl)oxy)-8-(trifluoromethyl)naphthalen-2-yl)ethyl)amino)cyclobutanecarboxylic acid], the IC50 was not above 100 nM.

Staying with this assay, now noted: IC50, FRET substrate FS-3 2 μM, ATX 1.0 μg/mL, 30 minutes pre-incubation, 2 hours at room temperature.
`CC[C@H]1CC[C@@H](Oc2ccc3ccc(C(C)N4C5CCC4CC(C(=O)O)C5)cc3c2C(F)F)CC1` (stereo partly drawn) [Example 63, 8-(1-(8-(difluoromethyl)-7-((cis-4-ethylcyclohexyl)oxy)naphthalen-2-yl)ethyl)-8-azabicyclo[3.2.1]octane-3-carboxylic acid] yielded an IC50 not above 100 nM.

The compound `CC[C@H]1CC[C@@H](Oc2ccc3ccc(C(C)N4C5CCC4CC(C(=O)O)C5)cc3c2Cl)CC1` (stereo partly drawn) [Example 65, 8-(1-(8-chloro-7-((cis-4-ethylcyclohexyl)oxy)naphthalen-2-yl)ethyl)-8-azabicyclo[3.2.1]octane-3-carboxylic acid] registered an IC50 not above 250 nM.

Take `CC[C@H]1CC[C@@H](Oc2ccc3ccc(C(C)N4C5CCCC4CC(C(=O)O)C5)cc3c2Cl)CC1` (stereo partly drawn) [Example 66, 9-(1-(8-chloro-7-((cis-4-ethylcyclohexyl)oxy)naphthalen-2-yl)ethyl)-9-azabicyclo[3.3.1]nonane-3-carboxylic acid]: the IC50 was not above 250 nM.

The compound `CC[C@H]1CC[C@@H](Oc2ccc3ccc(CN4C5CCC4CC(C(=O)O)C5)cc3c2C#N)CC1` (stereo partly drawn) [Example 70, 8-((8-cyano-7-((cis-4-ethylcyclohexyl)oxy)naphthalen-2-yl)methyl)-8-azabicyclo[3.2.1]octane-3-carboxylic acid] gave an IC50 not above 100 nM.

`CC[C@H]1CC[C@@H](Oc2ccc3ccc(CN4C5CCCC4CC(C(=O)O)C5)cc3c2C#N)CC1` (stereo partly drawn) [Example 71, 9-((8-cyano-7-((cis-4-ethylcyclohexyl)oxy)naphthalen-2-yl)methyl)-9-azabicyclo[3.3.1]nonane-3-carboxylic acid] registered an IC50 not above 100 nM.

`CC[C@H]1CC[C@@H](Oc2ccc3ccc(C(C)N4C5CCC4CC(C(=O)O)C5)cc3c2C#N)CC1` (stereo partly drawn) [Example 73, 8-(1-(8-cyano-7-((cis-4-ethylcyclohexyl)oxy)naphthalen-2-yl)ethyl)-8-azabicyclo[3.2.1]octane-3-carboxylic acid] came in with an IC50 not above 100 nM.

Take `CC[C@H]1CC[C@@H](Oc2ccc3ccc(C(C)N4C5CCCC4CC(C(=O)O)C5)cc3c2C#N)CC1` (stereo partly drawn) [Example 74, 9-(1-(8-cyano-7-((cis-4-ethylcyclohexyl)oxy)naphthalen-2-yl)ethyl)-9-azabicyclo[3.3.1]nonane-3-carboxylic acid]: the IC50 is not above 100 nM.

Take `C[C@H]1CC[C@@H](Oc2ccc3ccc(CN4C5CCC4CC(C(=O)O)C5)cc3c2Cl)CC1` (stereo partly drawn) [Example 83, 8-((8-chloro-7-((cis-4-methylcyclohexyl)oxy)naphthalen-2-yl)methyl)-8-azabicyclo[3.2.1]octane-3-carboxylic acid]: the IC50 was not above 250 nM.

Consider `C[C@H]1CC[C@@H](Oc2ccc3ccc(CN4C5CCCC4CC(C(=O)O)C5)cc3c2C(F)F)CC1` (stereo partly drawn) [Example 86, 9-((8-(difluoromethyl)-7-((cis-4-methylcyclohexyl)oxy)naphthalen-2-yl)methyl)-9-azabicyclo[3.3.1]nonane-3-carboxylic acid], for which the IC50 was not above 100 nM.

As to `CC(c1ccc2ccc(O[C@H]3CC[C@@H](C)CC3)c(C(F)F)c2c1)N1C2CCC1CC(C(=O)O)C2` (stereo partly drawn) [Example 87, 8-(1-(8-(difluoromethyl)-7-((cis-4-methylcyclohexyl)oxy)naphthalen-2-yl)ethyl)-8-azabicyclo[3.2.1]octane-3-carboxylic acid], the IC50 was not above 100 nM.

Consider `CC(c1ccc2ccc(O[C@H]3CC[C@@H](C)CC3)c(C(F)F)c2c1)N1C2CCCC1CC(C(=O)O)C2` (stereo partly drawn) [Example 88, 9-(1-(8-(difluoromethyl)-7-((cis-4-methylcyclohexyl)oxy)naphthalen-2-yl)ethyl)-9-azabicyclo[3.3.1]nonane-3-carboxylic acid], for which the IC50 is not above 100 nM.

The compound `CC(c1ccc2ccc(O[C@H]3CC[C@@H](C)CC3)c(Cl)c2c1)N1C2CCC1CC(C(=O)O)C2` (stereo partly drawn) [Example 90, 8-(1-(8-chloro-7-((cis-4-methylcyclohexyl)oxy)naphthalen-2-yl)ethyl)-8-azabicyclo[3.2.1]octane-3-carboxylic acid] showed an IC50 not above 250 nM.

`CC(c1ccc2ccc(O[C@H]3CC[C@@H](C)CC3)c(Cl)c2c1)N1C2CCCC1CC(C(=O)O)C2` (stereo partly drawn) [Example 91, 9-(1-(8-chloro-7-((cis-4-methylcyclohexyl)oxy)naphthalen-2-yl)ethyl)-9-azabicyclo[3.3.1]nonane-3-carboxylic acid] gave a half-maximal inhibitory concentration (IC50) not above 250 nM.

`CCC(c1ccc2ccc(O[C@H]3CC[C@@H](C)CC3)c(Cl)c2c1)N1C2CCC1CC(C(=O)O)C2` (stereo partly drawn) [Example 95, 8-(1-(8-chloro-7-((cis-4-methylcyclohexyl)oxy)naphthalen-2-yl)propyl)-8-azabicyclo[3.2.1]octane-3-carboxylic acid] gave an IC50 not above 500 nM.

In turn, `C[C@H]1CC[C@@H](Oc2ccc3ccc(CN4C5CCC4CC(C(=O)O)C5)cc3c2C#N)CC1` (stereo partly drawn) [Example 96, 8-((8-cyano-7-((cis-4-methylcyclohexyl)oxy)naphthalen-2-yl)methyl)-8-azabicyclo[3.2.1]octane-3-carboxylic acid] registered an IC50 not above 250 nM.

The compound `C[C@H]1CC[C@@H](Oc2ccc3ccc(CN4C5CCCC4CC(C(=O)O)C5)cc3c2C#N)CC1` (stereo partly drawn) [Example 98, 9-((8-cyano-7-((cis-4-methylcyclohexyl)oxy)naphthalen-2-yl)methyl)-9-azabicyclo[3.3.1]nonane-3-carboxylic acid] yielded a half-maximal inhibitory concentration (IC50) not above 100 nM.

For `CC(c1ccc2ccc(O[C@H]3CC[C@@H](C)CC3)c(C#N)c2c1)N1C2CCC1CC(C(=O)O)C2` (stereo partly drawn) [Example 101, 8-(1-(8-cyano-7-((cis-4-methylcyclohexyl)oxy)naphthalen-2-yl)ethyl)-8-azabicyclo[3.2.1]octane-3-carboxylic acid], the IC50 is not above 100 nM.
